Assay: xn = mol fraction of the nth substance listed
Settings: Liquid, Vibrating tube method

CCCCCl [1-chlorobutane] + CCCCCCC
mass density [kg/m3]
Settings | 313.15 K | 323.15 K
100 kPa, x2 = 0.0508 | – | 838.56
100 kPa, x2 = 0.0994 | – | 825.81
100 kPa, x2 = 0.2013 | – | 800.61
100 kPa, x2 = 0.3015 | – | 777.72
100 kPa, x2 = 0.4008 | – | 756.76
100 kPa, x2 = 0.5026 | – | 736.89
100 kPa, x2 = 0.6012 | – | 719.03
100 kPa, x2 = 0.7003 | – | 702.32
100 kPa, x2 = 0.7995 | – | 686.71
100 kPa, x2 = 0.9011 | – | 671.83
100 kPa, x2 = 0.9494 | – | 665.13
2000 kPa, x2 = 0.0508 | – | 840.94
2000 kPa, x2 = 0.0994 | – | 828.16
2000 kPa, x2 = 0.2013 | – | 802.98
2000 kPa, x2 = 0.3015 | – | 780.1
2000 kPa, x2 = 0.4008 | – | 759.09
2000 kPa, x2 = 0.5026 | – | 739.17
2000 kPa, x2 = 0.6012 | – | 721.27
2000 kPa, x2 = 0.7003 | – | 704.55
2000 kPa, x2 = 0.7995 | – | 688.99
2000 kPa, x2 = 0.9011 | – | 674.07
2000 kPa, x2 = 0.9494 | – | 667.35
5000 kPa, x2 = 0.0508 | – | 844.77
5000 kPa, x2 = 0.0994 | – | 831.99
5000 kPa, x2 = 0.2013 | – | 806.76
5000 kPa, x2 = 0.3015 | – | 783.86
5000 kPa, x2 = 0.4008 | – | 762.86
5000 kPa, x2 = 0.5026 | – | 742.92
5000 kPa, x2 = 0.6012 | – | 724.95
5000 kPa, x2 = 0.7003 | – | 708.22
5000 kPa, x2 = 0.7995 | – | 692.58
5000 kPa, x2 = 0.9011 | – | 677.65
5000 kPa, x2 = 0.9494 | – | 670.89
7000 kPa, x2 = 0.0508 | – | 847.24
7000 kPa, x2 = 0.0994 | – | 834.44
7000 kPa, x2 = 0.2013 | – | 809.21
7000 kPa, x2 = 0.3015 | – | 786.24
7000 kPa, x2 = 0.4008 | – | 765.22
7000 kPa, x2 = 0.5026 | – | 745.31
7000 kPa, x2 = 0.6012 | – | 727.32
7000 kPa, x2 = 0.7003 | – | 710.53
7000 kPa, x2 = 0.7995 | – | 694.9
7000 kPa, x2 = 0.9011 | – | 679.93
7000 kPa, x2 = 0.9494 | – | 673.17
10000 kPa, x2 = 0.0508 | – | 850.72
10000 kPa, x2 = 0.0994 | – | 837.9
10000 kPa, x2 = 0.2013 | – | 812.61
10000 kPa, x2 = 0.3015 | – | 789.63
10000 kPa, x2 = 0.4008 | – | 768.57
10000 kPa, x2 = 0.5026 | – | 748.59
10000 kPa, x2 = 0.6012 | – | 730.62
10000 kPa, x2 = 0.7003 | – | 713.78
10000 kPa, x2 = 0.7995 | – | 698.05
10000 kPa, x2 = 0.9011 | – | 683.06
10000 kPa, x2 = 0.9494 | – | 676.28
20000 kPa, x2 = 0.0508 | – | 861.47
20000 kPa, x2 = 0.0994 | – | 848.64
20000 kPa, x2 = 0.2013 | – | 823.24
20000 kPa, x2 = 0.3015 | – | 800.16
20000 kPa, x2 = 0.4008 | – | 779.03
20000 kPa, x2 = 0.5026 | 767.37 | 758.92
20000 kPa, x2 = 0.6012 | 749.02 | 740.82
20000 kPa, x2 = 0.7003 | 731.86 | 723.85
20000 kPa, x2 = 0.7995 | 715.81 | 708.08
20000 kPa, x2 = 0.9011 | 700.5 | 692.95
20000 kPa, x2 = 0.9494 | 693.56 | 686.11
30000 kPa, x2 = 0.0508 | 880.41 | 871.14
30000 kPa, x2 = 0.0994 | 867.36 | 858.24
30000 kPa, x2 = 0.2013 | 841.53 | 832.76
30000 kPa, x2 = 0.3015 | 818.07 | 809.58
30000 kPa, x2 = 0.4008 | 796.54 | 788.23
30000 kPa, x2 = 0.5026 | 776 | 767.99
30000 kPa, x2 = 0.6012 | 757.6 | 749.78
30000 kPa, x2 = 0.7003 | 740.3 | 732.75
30000 kPa, x2 = 0.7995 | 724.2 | 716.78
30000 kPa, x2 = 0.9011 | 708.75 | 701.56
30000 kPa, x2 = 0.9494 | 701.75 | 694.65
40000 kPa, x2 = 0.0508 | 888.86 | 880.1
40000 kPa, x2 = 0.0994 | 875.75 | 867.14
40000 kPa, x2 = 0.2013 | 849.87 | 841.52
40000 kPa, x2 = 0.3015 | 826.26 | 818.18
40000 kPa, x2 = 0.4008 | 804.63 | 796.79
40000 kPa, x2 = 0.5026 | 783.99 | 776.38
40000 kPa, x2 = 0.6012 | 765.46 | 758.03
40000 kPa, x2 = 0.7003 | 748.11 | 740.88
40000 kPa, x2 = 0.7995 | 731.87 | 724.82
40000 kPa, x2 = 0.9011 | 716.29 | 709.43
40000 kPa, x2 = 0.9494 | 709.25 | 702.46
50000 kPa, x2 = 0.0508 | 896.61 | 888.16
50000 kPa, x2 = 0.0994 | 883.49 | 875.18
50000 kPa, x2 = 0.2013 | 857.51 | 849.47
50000 kPa, x2 = 0.3015 | 833.86 | 826.06
50000 kPa, x2 = 0.4008 | 812.1 | 804.52
50000 kPa, x2 = 0.5026 | 791.37 | 784.01
50000 kPa, x2 = 0.6012 | 772.75 | 765.61
50000 kPa, x2 = 0.7003 | 755.31 | 748.29
50000 kPa, x2 = 0.7995 | 738.98 | 732.14
50000 kPa, x2 = 0.9011 | 723.31 | 716.65
50000 kPa, x2 = 0.9494 | 716.21 | 709.64
60000 kPa, x2 = 0.0508 | 903.88 | 895.85
60000 kPa, x2 = 0.0994 | 890.72 | 882.82
60000 kPa, x2 = 0.2013 | 864.67 | 856.99
60000 kPa, x2 = 0.3015 | 840.92 | 833.5
60000 kPa, x2 = 0.4008 | 819.09 | 811.83
60000 kPa, x2 = 0.5026 | 798.31 | 791.24
60000 kPa, x2 = 0.6012 | 779.58 | 772.72
60000 kPa, x2 = 0.7003 | 762 | 755.34
60000 kPa, x2 = 0.7995 | 745.59 | 739.04
60000 kPa, x2 = 0.9011 | 729.82 | 723.43
60000 kPa, x2 = 0.9494 | 722.67 | 716.36
65000 kPa, x2 = 0.0508 | 907.45 | 899.38
65000 kPa, x2 = 0.0994 | 894.26 | 886.34
65000 kPa, x2 = 0.2013 | 868.13 | 860.51
65000 kPa, x2 = 0.3015 | 844.29 | 836.96
65000 kPa, x2 = 0.4008 | 822.37 | 815.25
65000 kPa, x2 = 0.5026 | 801.56 | 794.63
65000 kPa, x2 = 0.6012 | 782.77 | 776.07
65000 kPa, x2 = 0.7003 | 765.13 | 758.61
65000 kPa, x2 = 0.7995 | 748.66 | 742.31
65000 kPa, x2 = 0.9011 | 732.82 | 726.65
65000 kPa, x2 = 0.9494 | 725.63 | 719.56

Reference: the NIST ThermoML archive (doi:10.1016/j.tca.2015.06.017)
